What follows are compounds tested on 3T3-L1 preadipocytes (assay: Oil-Red-O staining of lipid droplets after induction of 3T3-L1 preadipocyte differentiation). Conditions: 50 μM test material; differentiated 3T3-L1 cells.
Format: cell-based, mouse
Procedure: (§1) 3T3-L1 mouse preadipocytes (American Type Culture Collection) were incubated in an incubator set to 37° C., humidity of 95% and 5% CO2. The 3T3-L1 mouse preadipocytes were sufficiently proliferated using a proliferation medium (Dulbecco's modified Eagle's medium (DMEM) supplemented with 5% fetal bovine serum (FBS), 100 U/mL of penicillin and 100 μg/mL of streptomycin), and treated with a differentiation medium (DMEM containing 5% FBS, 0.5 mM 3-isobutyl-1-methylxanthine, […] dexamethasone and 10 μg/mL insulin) for 4 days. Afterward, the 3T3-L1 mouse preadipocytes were treated with an induction medium (DMEM containing 5% FBS and 10 μg/mL insulin, DMEM containing 5% FBS) for 2 days, and to maintain differentiated adipocytes until the end of the experiment, the induction medium was replaced every day. The 3T3-L1 cells were used in Experimental Examples 1, 2, and 3.
To confirm capacity of inhibiting the formation of lipid droplets of a test material, 3T3-L1 cells, which are preadipocytes, were induced to differentiate into adipocytes, and then the lipid droplets were stained through the Oil-Red-O staining.
First, after preadipocytes, 3T3-L1 cells, were incubated in a dish having a diameter of 10 cm^2, excluding G1 and G2, the cells were treated with 50 μM of a test material previously diluted with a culture medium (refer to Table 2).
Next, for staining, first, the cell supernatant present in a well was removed, and fixed with 4% paraformaldehyde. Afterward, after adding a 100% 1,2-propanediol dehydration solution, the resulting sample was incubated for 5 minutes, and then an Oil-Red-O stain solution was added for staining of lipid droplets. After the Oil-Red-O staining, an 85% 1,2-propanediol stain differential solution was added for washing.
Finally, after filling a well with D.W. without drying the stained well, the formation of lipid droplets was confirmed by observation using a microscope.
After confirming the formation of lipid droplets using Oil-Red-O staining, a part stained with isopropanol was dissolved, and the degree of staining lipid droplets was confirmed by absorbance at 540 nm. The increase/decrease rate, compared to the normal control, was evaluated using an optical density (OD) value.

Row | SMILES | amount of stained lipid droplets (Oil-Red-O dissolved in isopropanol, absorbance at 540 nm, FIG. 2)
1 | CSc1ccc(/C=C/C=C/C(=O)N2CCCC(O)C2)cc1 (centres unmarked) [R-7, (2E,4E)-1-(3-hydroxypiperidine-1-yl)-5-(4-(methylthio)phenyl)penta-2,4-dien-1-one] | less than that of the test groups treated with R-3 and 4
2 | CSc1ccc(/C=C/C=C/C(=O)N2CCC(O)CC2)cc1 [R-8, (2E,4E)-1-(4-hydroxypiperidine-1-yl)-5-(4-(methylthio)phenyl)penta-2,4-dien-1-one] | less than that of the test groups treated with R-3 and 4
3 | COC1CCN(C(=O)/C=C/C=C/c2ccc(SC)cc2)CC1 [R-9, (2E,4E)-1-(4-methoxypiperidine-1-yl)-5-(4-(methylthio)phenyl)penta-2,4-dien-1-one] | less than that of the test groups treated with R-3 and 4
4 | CSc1ccc(/C=C/C=C/C(=O)N2CCC(NC(C)=O)CC2)cc1 [R-11, N-(1-((2E,4E)-5-(4-(methylthio)phenyl)penta-2,4-dienoyl)piperidine-4-yl)acetamide] | less than that of the test groups treated with R-3 and 4
5 | COc1ccc(/C=C/C=C/C(=O)N2CCN(C)CC2)cc1 [R-15, (2E,4E)-5-(4-methoxyphenyl)-1-(4-methylpiperazine-1-yl)penta-2,4-dien-1-one] | less than that of the test groups treated with R-3 and 4
6 | CSc1ccc(/C=C/C=C/C(=O)N2CCN(C(C)=O)CC2)cc1 [R-17, (2E,4E)-1-(4-acetylpiperazine-1-yl)-5-(4-(methylthio)phenyl)penta-2,4-dien-1-one] | less than that of the test groups treated with R-3 and 4
7 | CSc1ccc(/C=C/C=C/C(=O)N2CCN(C(=O)OC(C)(C)C)CC2)cc1 [R-28, Tert-butyl 4-((2E,4E)-5-(4-(methylthio)phenyl)penta-2,4-dienoyl)piperazine-1-carboxylate] | less than that of the test groups treated with R-3 and 4
8 | COc1ccc(/C=C/C=C/C(=O)N2CCOCC2)cc1 [R-29, (2E,4E)-5-(4-methoxyphenyl)-1-morpholinopenta-2,4-dien-1-one] | less than that of the test groups treated with R-3 and 4
9 | CSc1ccc(/C=C/C=C/C(=O)N2CCOCC2)cc1 [R-30, (2E,4E)-5-(4-(methylthio)phenyl)-1-morpholinopenta-2,4-dien-1-one] | less than that of the test groups treated with R-3 and 4

These compounds were tested on 3T3-L1 preadipocytes (assay: Triglyceride content after induction of 3T3-L1 preadipocyte differentiation). Conditions: differentiated 3T3-L1 cells; predetermined concentration of test material.
Format: cell-based, mouse
Procedure: as §1
(§2) Preadipocytes, 3T3-L1 cells, were incubated in a dish having a diameter of 10 cm^2 by the same method as described in Experimental Example 1, and then treated with a predetermined concentration of a test material diluted with a culture medium. After treatment, a triglyceride content was confirmed using an assay kit.

Row | SMILES | triglyceride content (FIG. 3)
10 | CSc1ccc(/C=C/C=C/C(=O)N2CCCC(O)C2)cc1 (centres unmarked) [R-7, (2E,4E)-1-(3-hydroxypiperidine-1-yl)-5-(4-(methylthio)phenyl)penta-2,4-dien-1-one] | lower than that of the test group treated with R-3
11 | CSc1ccc(/C=C/C=C/C(=O)N2CCC(O)CC2)cc1 [R-8, (2E,4E)-1-(4-hydroxypiperidine-1-yl)-5-(4-(methylthio)phenyl)penta-2,4-dien-1-one] | lower than that of the test group treated with R-3
12 | COC1CCN(C(=O)/C=C/C=C/c2ccc(SC)cc2)CC1 [R-9, (2E,4E)-1-(4-methoxypiperidine-1-yl)-5-(4-(methylthio)phenyl)penta-2,4-dien-1-one] | lower than that of the test group treated with R-3
13 | CSc1ccc(/C=C/C=C/C(=O)N2CCC(NC(C)=O)CC2)cc1 [R-11, N-(1-((2E,4E)-5-(4-(methylthio)phenyl)penta-2,4-dienoyl)piperidine-4-yl)acetamide] | lower than that of the test group treated with R-3
14 | COc1ccc(/C=C/C=C/C(=O)N2CCN(C)CC2)cc1 [R-15, (2E,4E)-5-(4-methoxyphenyl)-1-(4-methylpiperazine-1-yl)penta-2,4-dien-1-one] | lower than that of the test group treated with R-3
15 | CSc1ccc(/C=C/C=C/C(=O)N2CCN(C(C)=O)CC2)cc1 [R-17, (2E,4E)-1-(4-acetylpiperazine-1-yl)-5-(4-(methylthio)phenyl)penta-2,4-dien-1-one] | lower than that of the test group treated with R-3
16 | CSc1ccc(/C=C/C=C/C(=O)N2CCN(C(=O)OC(C)(C)C)CC2)cc1 [R-28, Tert-butyl 4-((2E,4E)-5-(4-(methylthio)phenyl)penta-2,4-dienoyl)piperazine-1-carboxylate] | lower than that of the test group treated with R-3
17 | COc1ccc(/C=C/C=C/C(=O)N2CCOCC2)cc1 [R-29, (2E,4E)-5-(4-methoxyphenyl)-1-morpholinopenta-2,4-dien-1-one] | lower than that of the test group treated with R-3
18 | CSc1ccc(/C=C/C=C/C(=O)N2CCOCC2)cc1 [R-30, (2E,4E)-5-(4-(methylthio)phenyl)-1-morpholinopenta-2,4-dien-1-one] | lower than that of the test group treated with R-3

Each compound was assayed on 3T3-L1 preadipocytes (assay: Glycerol content after induction of 3T3-L1 preadipocyte differentiation). Conditions: differentiated 3T3-L1 cells; predetermined concentration of test material.
Format: cell-based, mouse
Procedure: as §1
as §2, with “glycerol” for “triglyceride”

Row | SMILES | glycerol content (FIG. 4)
19 | CSc1ccc(/C=C/C=C/C(=O)N2CCCC(O)C2)cc1 (centres unmarked) [R-7, (2E,4E)-1-(3-hydroxypiperidine-1-yl)-5-(4-(methylthio)phenyl)penta-2,4-dien-1-one] | lower than that of the test group treated with R-3
20 | CSc1ccc(/C=C/C=C/C(=O)N2CCC(O)CC2)cc1 [R-8, (2E,4E)-1-(4-hydroxypiperidine-1-yl)-5-(4-(methylthio)phenyl)penta-2,4-dien-1-one] | lower than that of the test group treated with R-3
21 | COC1CCN(C(=O)/C=C/C=C/c2ccc(SC)cc2)CC1 [R-9, (2E,4E)-1-(4-methoxypiperidine-1-yl)-5-(4-(methylthio)phenyl)penta-2,4-dien-1-one] | lower than that of the test group treated with R-3
22 | CSc1ccc(/C=C/C=C/C(=O)N2CCC(NC(C)=O)CC2)cc1 [R-11, N-(1-((2E,4E)-5-(4-(methylthio)phenyl)penta-2,4-dienoyl)piperidine-4-yl)acetamide] | lower than that of the test group treated with R-3
23 | COc1ccc(/C=C/C=C/C(=O)N2CCN(C)CC2)cc1 [R-15, (2E,4E)-5-(4-methoxyphenyl)-1-(4-methylpiperazine-1-yl)penta-2,4-dien-1-one] | lower than that of the test group treated with R-3
24 | CSc1ccc(/C=C/C=C/C(=O)N2CCN(C(C)=O)CC2)cc1 [R-17, (2E,4E)-1-(4-acetylpiperazine-1-yl)-5-(4-(methylthio)phenyl)penta-2,4-dien-1-one] | lower than that of the test group treated with R-3
25 | CSc1ccc(/C=C/C=C/C(=O)N2CCN(C(=O)OC(C)(C)C)CC2)cc1 [R-28, Tert-butyl 4-((2E,4E)-5-(4-(methylthio)phenyl)penta-2,4-dienoyl)piperazine-1-carboxylate] | lower than that of the test group treated with R-3
26 | COc1ccc(/C=C/C=C/C(=O)N2CCOCC2)cc1 [R-29, (2E,4E)-5-(4-methoxyphenyl)-1-morpholinopenta-2,4-dien-1-one] | lower than that of the test group treated with R-3
27 | CSc1ccc(/C=C/C=C/C(=O)N2CCOCC2)cc1 [R-30, (2E,4E)-5-(4-(methylthio)phenyl)-1-morpholinopenta-2,4-dien-1-one] | lower than that of the test group treated with R-3

The compounds below were run against T1, SIRT1 (Homo sapiens, UniProt Q96EB6) (assay: SIRT1 direct fluorescent assay). Conditions: 2 μM.
T1 construct: purchased Cayman (Ann Arbor, Mich., USA)
T1 sequence (Q96EB6 1-747): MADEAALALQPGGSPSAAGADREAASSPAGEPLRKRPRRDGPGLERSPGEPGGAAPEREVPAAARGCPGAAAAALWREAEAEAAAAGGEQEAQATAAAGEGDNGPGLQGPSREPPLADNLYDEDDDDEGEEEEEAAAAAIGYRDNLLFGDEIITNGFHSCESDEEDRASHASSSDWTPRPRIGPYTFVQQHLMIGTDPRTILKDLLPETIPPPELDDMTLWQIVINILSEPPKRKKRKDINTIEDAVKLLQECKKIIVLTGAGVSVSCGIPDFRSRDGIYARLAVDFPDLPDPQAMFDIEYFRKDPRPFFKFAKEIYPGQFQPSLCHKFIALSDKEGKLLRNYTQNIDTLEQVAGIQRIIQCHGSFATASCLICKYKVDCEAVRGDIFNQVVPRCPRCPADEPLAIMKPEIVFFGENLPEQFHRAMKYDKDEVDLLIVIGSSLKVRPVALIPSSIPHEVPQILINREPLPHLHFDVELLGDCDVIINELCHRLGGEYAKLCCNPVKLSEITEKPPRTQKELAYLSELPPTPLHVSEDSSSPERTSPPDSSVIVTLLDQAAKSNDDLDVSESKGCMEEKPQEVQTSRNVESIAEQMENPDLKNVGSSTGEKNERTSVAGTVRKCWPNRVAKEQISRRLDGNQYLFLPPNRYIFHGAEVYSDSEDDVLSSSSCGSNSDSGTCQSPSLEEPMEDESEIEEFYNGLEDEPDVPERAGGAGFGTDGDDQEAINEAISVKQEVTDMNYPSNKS
Format: biochemical
Procedure: All materials were provided from a Sirt1 direct fluorescent screening assay kit (Cayman, Ann Arbor, Mich., USA).
SIRT1, p53 conjugated aminomethyl coumarin (AMC) protein, and 3 mM NAD^+ were added to a diluted analysis buffer (50 mM Tris-HCl, pH 8.0, 137 mM NaCl, 2.7 mM KCl, and 1 mM MgCl2).
25 μL of the analysis buffer, 5 μL of diluted SIRT1, and 5 μL of a solvent were added to each of three 100% initial activity wells of a 96-well plate.
30 μL of the analysis buffer and 5 μL of a solvent were added to each of three background wells of the 96-well plate.
25 μL of the analysis buffer, 5 μL of diluted SIRT1, and 5 μL of a diluted test compound were added to each of three sample wells of the 96-well plate. The final DMSO concentration was less than 2%.
15 μL of a 3 mM NAD^+-containing substrate solution was added to all wells to begin the reaction. The 96-well plate was covered with a plate cover, and then incubated in a shaker at room temperature (25 to 30° C.) for 45 minutes.
A stop/developing solution was prepared. To prepare the final 5 mL solution, 200 μL of nicotinamide (NAM, Sigma-Aldrich) was added to a color developing powder weighing 30 mg, 4.8 mL of a diluted analysis buffer was added thereto, and the resulting mixture was stirred until the powder became a solution.
The plate cover was removed, and 50 μL of the stop/developing solution was added to each well.
The 96-well plate was covered with a plate cover, and incubated at room temperature (25 to 30° C.) for 30 minutes.
The plate cover was removed, and the plate was read using Cytation 5 at an excitation wavelength of 360 nm and an emission wavelength of 450 nm.
The mean fluorescence of each sample was measured.
The fluorescence of the background wells was subtracted from the fluorescence of the 100% initial activity wells and sample wells.
To determine the percent of each sample, each sample value was subtracted from the 100% initial activity value, and the resulting value was divided by the 100% initial activity value and then multiplied by 100 and added to 100, which was expressed as a percentage.

Row | SMILES | increase of SIRT1 activity (FIG. 18)
28 | CCOC(=O)N1CCN(C(=O)/C=C/C=C/c2cccc(OC)c2)CC1 [R-22, Ethyl ((2E,4E)-5-(3-methoxyphenyl)penta-2,4-dienoyl)piperazine-1-carboxylate] | about 5%

Same assay, conditions: 10 μM

Row | SMILES | increase of SIRT1 activity (FIG. 18)
29 | COc1ccc(/C=C/C=C/C(=O)N2CCN(C(=O)OC(C)C)CC2)cc1 [R-26, Isopropyl 4-((2E,4E)-5-(4-methoxyphenyl)penta-2,4-dienoyl)piperazine-1-carboxylate] | ≥ 10%

From US20200157048A1, “(2E,4E)-5-PHENYL-PENTA-2,4-DIEN-1-ONE DERIVATIVE” (BIOWAY., INC, priority 2018, published 2020)
